Experimental data as given in patent EP1561465A2, “Methods of use of fluoroquinolone compounds against bacteria” (LG Life Sciences, Ltd., priority 1999, dated 2001).
In brackets after ≈: the same amount, converted by molar mass. Read-outs that look alike come from different tables or passages of the source.

Assays:
Assay type in all cases: cell-based
[1] = tested on: Enterobacter spp.; test: MIC by agar dilution (NCCLS), 322 nosocomial Gram negative isolates, Athens 1998; conditions: Enterobacter, n = 57 isolates
[2] = tested on: Mycobacterium tuberculosis (MTB); test: MIC by proportions method (NCCLS M24-T, 1995), 82 MTB strains; conditions: Mycobacterium tuberculosis; 82 MTB strains
[3] = tested on: Hafnia alvei; test: MIC by agar dilution (NCCLS M7-A4), 288 enteropathogenic isolates, gemifloxacin and 15 other antimicrobials; conditions: Hafnia alvei N= 32
[4] = tested on: Shigella spp.; test: MIC by agar dilution (NCCLS M7-A4), 288 enteropathogenic isolates, eight quinolones; conditions: Shigella spp. (n = 21)
[5] = tested on: Streptococcus pneumoniae; test: MIC by broth microdilution (NCCLS), dried MicroScan panels, clinical isolates 1998-1999; conditions: for MIC90: Streptococcus pneumoniae
[6] = tested on: Hafnia alvei; test: MIC by agar dilution (NCCLS M7-A4), 288 enteropathogenic isolates, eight quinolones; conditions: Hafnia alvei (n = 32)
[7] = tested on: Shigella spp.; test: MIC by agar dilution (NCCLS M7-A4), 288 enteropathogenic isolates, gemifloxacin and 15 other antimicrobials; conditions: Shigella spp. N= 21
In short: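 Agar dilution with ~10^4 cfu/spot inoculum; plates incubated aerobically at 35 °C for 24 h, except C. jejuni, held microaerophilically for 48 h. MIC taken as lowest antibiotic concentration with no visible growth.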

[8] = tested on: Escherichia coli; test: MIC by NCCLS broth microdilution, 1100 Japanese clinical isolates 1997-1998; conditions: for MIC50 / MIC90: Escherichia coli
[9] = tested on: P. aeruginosa; test: MIC by two-fold serial agar dilution, quinolone-resistant strains; conditions: Pseudomonas aeruginosa
[10] = tested on: E. coli; test: microbe, parasite or virus in culture; conditions: Escherichia coli
[11] = tested on: Streptococcus pneumoniae; test: MIC by NCCLS reference broth microdilution, 450 respiratory tract pathogens; conditions: Streptococcus pneumoniae
[12] = tested on: Klebsiella pneumoniae; test: MIC by NCCLS broth microdilution, 1100 Japanese clinical isolates 1997-1998; conditions: Klebsiella pneumoniae (n=35)
[13] = tested on: Streptococcus pneumoniae; test: as above; conditions: for MIC50 / MIC90 / MIC: Streptococcus pneumoniae; for MIC50: read-out: MIC50; for MIC90: read-out: MIC90; for MIC: Streptococcus pneumoniae quinolone resistant
[14] = tested on: Enterobacter aerogenes; test: as above; conditions: Enterobacter aerogenes (n=35)
[15] = tested on: Enterobacter cloacae; test: as above; conditions: Enterobacter cloacae (n=40)
[16] = tested on: Streptococcus pneumoniae; test: MIC by two-fold serial agar dilution, Sensitivity Disk agar-N (Kitasato isolates); conditions: for MIC90: read-out: MIC90; for MIC: read-out: MIC Range
[17] = 24 h, read-out: MIC (mg/L) Range
[18] = Streptococcus pneumoniae (302 isolates)
[19] = Escherichia coli ciprofloxacin resistant (n=5)
[20] = Escherichia coli ciprofloxacin susceptible (n=37)
[21] = Streptococcus pneumoniae (n = 100)
[22] = erythromycin resistant M phenotype (n = 16)
[23] = erythromycin resistant MLSB phenotype (n = 16)
[24] = penicillin intermediate (n = 16)
[25] = penicillin susceptible (n = 20)
[26] = Streptococcus pneumoniae amoxicillin resistant (n=40)
[27] = Streptococcus pneumoniae amoxicillin susceptible (n=35)
[28] = Streptococcus pneumoniae erythromycin resistant (n=34)
[29] = Streptococcus pneumoniae erythromycin susceptible (n=11)

## CC1COc2c(N3CCN(C)CC3)c(F)cc3c(=O)c(C(=O)O)cn1c23 (stereo not shown) [Ofloxacin, ofloxacin]
[1]; read-out: MIC50
  MIC50: 0.125 µg/mL (≈ 0.346 µM)
[1]; read-out: MIC90
  MIC90: 64 µg/mL (≈ 177 µM)
[2]
  MIC90: 2 µg/mL (≈ 5.53 µM)
[3]; [17]
  MIC: 0.03 mg/L (≈ 0.083 µM)
[3]; read-out: MIC (mg/L) 50%
  MIC: 0.03 mg/L (≈ 0.083 µM)
[3]; read-out: MIC (mg/L) 90%
  MIC: 0.03 mg/L (≈ 0.083 µM)
[4]
  % Susceptible: 100%
  MIC50: 0.03 µg/mL (≈ 0.083 µM)
  MIC90: 0.06 µg/mL (≈ 0.166 µM)
  MIC Range: ≤0.015 to 0.06 µg/mL
[5]; [18]
  MIC50: 2 µg/mL (≈ 5.53 µM)
  MIC Range: ≤0.06 to 4 µg/mL
  MIC90: 4 µg/mL (≈ 11.1 µM)
[5]; Erythromycin-resistant (86)
  MIC90: 2 µg/mL (≈ 5.53 µM)
[5]; Erythromycin-sensitive (216)
  MIC90: 4 µg/mL (≈ 11.1 µM)
[5]; Penicillin-intermediate (124)
  MIC90: 4 µg/mL (≈ 11.1 µM)
[5]; Penicillin-resistant (80)
  MIC90: 2 µg/mL (≈ 5.53 µM)
[5]; Penicillin-sensitive (98)
  MIC90: 2 µg/mL (≈ 5.53 µM)
[6]
  % Susceptible: 100%
  MIC50: 0.03 µg/mL (≈ 0.083 µM)
  MIC90: 0.03 µg/mL (≈ 0.083 µM)
  MIC Range: 0.03 µg/mL (≈ 0.083 µM)
[7]; [17]
  MIC: 0.015 to 0.06 mg/L (≈ 0.0415 to 0.166 µM)
[7]; read-out: MIC (mg/L) 50%
  MIC: 0.03 mg/L (≈ 0.083 µM)
[7]; read-out: MIC (mg/L) 90%
  MIC: 0.06 mg/L (≈ 0.166 µM)

## C[C@@H]1CN(c2c(F)c(N)c3c(=O)c(C(=O)O)cn(C4CC4)c3c2F)C[C@H](C)N1 [Sparfloxacin, sparfloxacin]
[8]; [19]
  MIC Range: 8 to 128 µg/mL
  MIC50: 32 µg/mL (≈ 81.5 µM)
[8]; [20]
  MIC Range: ≤0.008 to 0.25 µg/mL
  MIC50: 0.016 µg/mL (≈ 0.0408 µM)
  MIC90: 0.032 µg/mL (≈ 0.0815 µM)
[8]; Escherichia coli ciprofloxacin resistant (n=5), values marked *: MIC80 value
  MIC90: 128 µg/mL (≈ 326 µM)
[9]
  MIC: 2 µg/mL (≈ 5.1 µM)
[10]; E. coli (13 strains), quinolone-resistant, read-out: MIC50
  MIC50: 0.125 µg/mL (≈ 0.319 µM)
[10]; E. coli (13 strains), quinolone-resistant, read-out: MIC90
  MIC90: 0.5 µg/mL (≈ 1.27 µM)
[10]; E. coli KU1029, mutant type SP (spontaneous mutant in the DNA gyrase)
  MIC: 0.031 µg/mL (≈ 0.079 µM)
[10]; E. coli KU1030, mutant type SP
  MIC: 0.063 µg/mL (≈ 0.161 µM)
[10]; E. coli KU1031, mutant type SP
  MIC: 0.031 µg/mL (≈ 0.079 µM)
[10]; E. coli KU1032, mutant type SP
  MIC: 0.125 µg/mL (≈ 0.319 µM)
[10]; E. coli KU1033, mutant type SP
  MIC: 0.031 µg/mL (≈ 0.079 µM)
[10]; E. coli KU1034, mutant type GA (DNA gyrase A)
  MIC: 0.5 µg/mL (≈ 1.27 µM)
[10]; E. coli KU1035, mutant type GA (DNA gyrase A)
  MIC: 0.5 µg/mL (≈ 1.27 µM)
[10]; E. coli KU1036, mutant type GB (DNA gyrase B)
  MIC: 0.063 µg/mL (≈ 0.161 µM)
[10]; E. coli KU1038, mutant type SP
  MIC: 0.031 µg/mL (≈ 0.079 µM)
[10]; E. coli KU1039, mutant type SP
  MIC: 0.25 µg/mL (≈ 0.637 µM)
[10]; E. coli KU1040, mutant type SP
  MIC: ≤ 0.008 µg/mL
[10]; E. coli KU1041, mutant type SP
  MIC: 0.25 µg/mL (≈ 0.637 µM)
[10]; E. coli KU1042, mutant type SP
  MIC: 0.063 µg/mL (≈ 0.161 µM)
[11]; [21]
  MIC: 0.12 to 1 µg/mL (≈ 0.306 to 2.55 µM)
  MIC50: 0.5 µg/mL (≈ 1.27 µM)
  MIC90: 0.5 µg/mL (≈ 1.27 µM)
[11]; [22]
  MIC: 0.25 µg/mL (≈ 0.637 µM)
  MIC50: 0.25 µg/mL (≈ 0.637 µM)
  MIC90: 0.25 µg/mL (≈ 0.637 µM)
[11]; [23]
  MIC: 0.12 to 0.5 µg/mL (≈ 0.306 to 1.27 µM)
  MIC50: 0.25 µg/mL (≈ 0.637 µM)
  MIC90: 0.25 µg/mL (≈ 0.637 µM)
[11]; multi-drug resistant (n = 16)
  MIC: 0.12 to 0.5 µg/mL (≈ 0.306 to 1.27 µM)
  MIC50: 0.5 µg/mL (≈ 1.27 µM)
  MIC90: 0.5 µg/mL (≈ 1.27 µM)
[11]; [24]
  MIC: 0.5 to 1 µg/mL (≈ 1.27 to 2.55 µM)
  MIC50: 0.5 µg/mL (≈ 1.27 µM)
  MIC90: 0.5 µg/mL (≈ 1.27 µM)
[11]; penicillin resistant (n = 18)
  MIC: 0.25 to 1 µg/mL (≈ 0.637 to 2.55 µM)
  MIC50: 0.5 µg/mL (≈ 1.27 µM)
  MIC90: 1 µg/mL (≈ 2.55 µM)
[11]; [25]
  MIC: 0.12 to 0.5 µg/mL (≈ 0.306 to 1.27 µM)
  MIC50: 0.25 µg/mL (≈ 0.637 µM)
  MIC90: 0.25 µg/mL (≈ 0.637 µM)
[12]
  MIC50: 0.032 µg/mL (≈ 0.0815 µM)
  MIC Range: 0.016 to 2 µg/mL
[12]; read-out: MIC90
  MIC90: 0.063 µg/mL (≈ 0.161 µM)
[13]; [26]
  MIC Range: 0.125 to 4 µg/mL
  MIC50: 0.25 µg/mL (≈ 0.637 µM)
  MIC90: 0.25 µg/mL (≈ 0.637 µM)
[13]; [27]
  MIC Range: 0.032 to 4 µg/mL
  MIC50: 0.25 µg/mL (≈ 0.637 µM)
  MIC90: 0.5 µg/mL (≈ 1.27 µM)
[13]; [28]
  MIC Range: 0.032 to 4 µg/mL
  MIC50: 0.25 µg/mL (≈ 0.637 µM)
  MIC90: 0.25 µg/mL (≈ 0.637 µM)
[13]; [29]
  MIC Range: 0.125 to 0.25 µg/mL
  MIC50: 0.25 µg/mL (≈ 0.637 µM)
  MIC90: 0.25 µg/mL (≈ 0.637 µM)
[13]; strain TMS1
  MIC: 0.5 µg/mL (≈ 1.27 µM)
[13]; strain TMS2
  MIC: 8 µg/mL (≈ 20.4 µM)
[14]
  MIC Range: 0.016 to 0.25 µg/mL
[14]; Klebsiella aerogenes
  MIC50: 0.032 µg/mL (≈ 0.0815 µM)
  MIC90: 0.063 µg/mL (≈ 0.161 µM)
[15]
  MIC50: 0.032 µg/mL (≈ 0.0815 µM)
  MIC90: 1 µg/mL (≈ 2.55 µM)
  MIC Range: ≤0.008 to 2 µg/mL
[16]; Ciprofloxacin-susceptible (94)
  MIC50: 0.125 µg/mL (≈ 0.319 µM)
[16]; Minocycline-resistant (37)
  MIC Range: 0.125 to 8 µg/mL
[16]; Streptococcus pneumoniae
  MIC50: 0.125 µg/mL (≈ 0.319 µM)
[16]; Streptococcus pneumoniae, 18 h, Ciprofloxacin-resistant (21), ciprofloxacin MIC ≥8 µg/ml
  MIC90: 8 µg/mL (≈ 20.4 µM)
[16]; Streptococcus pneumoniae, 18 h, Ciprofloxacin-resistant (21)
  MIC: 0.25 to 8 µg/mL (≈ 0.637 to 20.4 µM)
[16]; Streptococcus pneumoniae, 18 h, Ciprofloxacin-susceptible (94)
  MIC: 0.063 to 0.5 µg/mL (≈ 0.161 to 1.27 µM)
[16]; Streptococcus pneumoniae, 18 h, Penicillin-resistant (19)
  MIC: 0.063 to 1 µg/mL (≈ 0.161 to 2.55 µM)
[16]; Streptococcus pneumoniae, 18 h
  MIC: 0.125 to 8 µg/mL (≈ 0.319 to 20.4 µM)
[16]; Streptococcus pneumoniae, Ciprofloxacin-resistant (21), read-out: MIC50
  MIC50: 4 µg/mL (≈ 10.2 µM)
[16]; Streptococcus pneumoniae, Ciprofloxacin-susceptible (94)
  MIC90: 0.25 µg/mL (≈ 0.637 µM)
[16]; Streptococcus pneumoniae, Erythromycin-resistant (37), read-out: MIC50
  MIC50: 0.25 µg/mL (≈ 0.637 µM)
[16]; Streptococcus pneumoniae, Erythromycin-resistant (37)
  MIC90: 0.5 µg/mL (≈ 1.27 µM)
[16]; Streptococcus pneumoniae, Minocycline-resistant (37), read-out: MIC50
  MIC50: 0.25 µg/mL (≈ 0.637 µM)
[16]; Streptococcus pneumoniae, Minocycline-resistant (37)
  MIC90: 0.5 µg/mL (≈ 1.27 µM)
[16]; Streptococcus pneumoniae, Penicillin-resistant (19)
  MIC90: 0.5 µg/mL (≈ 1.27 µM)
